What all share (assay): o-nitrophenol release at […] nm, Lineweaver-Burk
Type in all cases: biochemical
Common to all, as to conditions: 100 mM buffer Z (1 mM MgSO4, 50 mM 2-mercaptoethanol), pH 7.0, 55 °C; apparent

Assay [1] concerns the target T1, β-galactosidase LacA (LacA-WT) (Bacillus subtilis, UniProt O07012, A286V, form not given).
T1 construct: gene ganA; full lacA gene (2061 bp) in pET22b(+), C-terminal 6xHis tag kept, E. coli JM109(DE3), Ni ProBond purified, 70 kDa, GH42

The target of assay [2] is T2, β-galactosidase LacA (LacA-WT) (Bacillus subtilis, UniProt O07012).
T2 construct: gene ganA; full lacA gene (2061 bp) in pET22b(+), C-terminal 6xHis tag kept, E. coli JM109(DE3), Ni ProBond purified, 70 kDa, GH42

For assay [3], the target named is T3, β-galactosidase LacA (LacA-WT) (Bacillus subtilis, UniProt O07012, F346Y, form not given).
T3 construct: gene ganA; full lacA gene (2061 bp) in pET22b(+), C-terminal 6xHis tag kept, E. coli JM109(DE3), Ni ProBond purified, 70 kDa, GH42

The values that follow come from publication PMC4938916, “Effect of mutations to amino acid A301 and F361 in thermostability and catalytic activity of the β-galactosidase from Bacillus subtilis VTCC-DVN-12-01” (BMC Biochemistry, 2016).

T3 sequence (O07012 whole entry F346Y, form open): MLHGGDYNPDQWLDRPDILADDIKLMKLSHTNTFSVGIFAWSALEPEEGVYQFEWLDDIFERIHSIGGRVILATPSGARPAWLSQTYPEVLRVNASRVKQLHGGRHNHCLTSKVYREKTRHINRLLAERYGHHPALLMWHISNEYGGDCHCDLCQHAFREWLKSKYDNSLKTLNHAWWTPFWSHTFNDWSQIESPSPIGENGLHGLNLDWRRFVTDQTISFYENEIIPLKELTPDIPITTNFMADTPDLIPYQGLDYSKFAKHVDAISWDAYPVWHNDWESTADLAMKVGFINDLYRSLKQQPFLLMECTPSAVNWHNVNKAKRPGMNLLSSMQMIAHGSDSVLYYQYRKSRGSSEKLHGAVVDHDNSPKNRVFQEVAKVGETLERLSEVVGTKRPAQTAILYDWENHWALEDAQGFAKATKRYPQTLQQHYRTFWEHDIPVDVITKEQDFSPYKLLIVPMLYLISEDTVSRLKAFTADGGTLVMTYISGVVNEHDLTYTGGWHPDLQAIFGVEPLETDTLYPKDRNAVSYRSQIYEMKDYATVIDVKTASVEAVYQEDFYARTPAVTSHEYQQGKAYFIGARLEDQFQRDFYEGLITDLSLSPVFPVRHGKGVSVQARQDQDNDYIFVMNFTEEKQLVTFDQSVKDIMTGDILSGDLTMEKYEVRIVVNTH
T1 sequence (O07012 whole entry A286V, form open): as the sequence (O07012 whole entry F346Y, form open) above, with A286V, Y346F counted along it
T2 sequence (O07012 whole entry): as the sequence (O07012 whole entry F346Y, form open) above, with Y346F counted along it

Turning to `O=[N+]([O-])c1ccccc1O[C@@H]1O[C@H](CO)[C@H](O)[C@H](O)[C@H]1O` [oNPG, Ortho-nitrophenyl-β-D-galactopyranoside], the Km in assay [1] worked out at 5.57 ± 0.56 mM; in assay [2] it was 9.28 ± 0.72 mM; in assay [3], 8.02 ± 0.27 mM.

One may read the Km as the substrate concentration at which the rate is half of its maximum.
